Measurements published in patent US20230068010A1, “FORMULATION OF INSECTICIDAL MIXTURES COMPRISING GLYCOL ETHER SOLVENTS” (Bayer Aktiengesellschaft, priority 2019, published 2023).

Experiment: Cuticle penetration test
Type: in vitro ADME, apple tree
Text: This test measures the penetration of active ingredients through enzymatically isolated cuticles of apple tree leaves.
Leaves that have been cut off apple trees in the developed state and isolated by the method described in Schönherr and Riederer (Schönherr, J., Riederer, M. (1986)) are used. Only the cuticles of the top sides of the leaves that are free of stomata and hair are used further.
For membrane transport studies, the cuticular membranes thus obtained are placed into stainless steel diffusion cells (=transport chambers). For this purpose, the cuticles are placed with tweezers onto the middle of the silicone grease-smeared edges of the diffusion cells and sealed with a likewise greased ring. The arrangement is chosen such that the morphological outside of the cuticles is directed outward, i.e. toward the air, while the original inside faces the inside of the diffusion cell. The diffusion cells are filled with water or with a mixture of water and solvent and buffered to the physiologically relevant pH of 5.5. The medium in the diffusion cells is supposed to simulate the apoplast, i.e. the natural absorption medium within the leaf. This method is of good suitability for systemic and mechanistic studies with the aim of understanding the effect of the formulations, adjuvants and solvents on penetration of the crop protection compositions.
The active ingredient concentration corresponds to the field application rate customary in practice. For preparation of the spray liquor the corresponding ingredients in the given amounts are given into tap water and homogenized by mixing.
After the spray liquors have been applied, the water is allowed to evaporate in each case, then the chambers are inverted and they are placed into thermostated tanks, wherein air at a defined air humidity and temperature is blown onto the outside of the cuticles in each case. The penetration that sets in therefore takes place at a relative air humidity of 56% and a set temperature of 25° C. At regular intervals, an autosampler is used to take samples and the content of penetrated active ingredient is measured by means of HPLC. The numbers reported are average values from 5 to 10 individual measurements in each case.

O=C1C=C(N(Cc2ccc(Cl)nc2)CC(F)F)CO1 [Flupyradifurone]
Penetration after 24 h (entry 1: spray solution 0.1 g/L Compd I-2 + 0.5 g/L flupyradifurone, no additives, 25° C., 56% r.h.): 5.1% | Penetration after 24 h (entry 1: spray solution 0.1 g/L Compd I-2 + 0.5 g/L flupyradifurone, no additives, 25° C., 56% r.h., listed as flupyradifurone): barely any, if any, cuticle penetration | Penetration after 24 h (entry 2: 0.1 g/L Compd I-2 + 0.5 g/L flupyradifurone + DAHP 1.6 g/L, 25° C., 56% r.h.): 29.2% | Penetration after 24 h (entry 3: 0.1 g/L Compd I-2 + 0.5 g/L flupyradifurone + Antarox B/848 1.3 g/L, 25° C., 56% r.h.): 73% | Penetration after 24 h (entry 4: 0.1 g/L Compd I-2 + 0.5 g/L flupyradifurone + Antarox B/848 1.3 + DAHP 1.6 g/L, 25° C., 56% r.h.): 82.8% | Penetration after 24 h (entry 5: as entry 4 + 1.8 g/L Propylenglycolmonomethylether (B) + 1.8 g/L Propylenglycol (C)): 87.2% | Penetration after 24 h (entry 6: as entry 4 + 1.8 g/L Propylenglycolmonomethylether (B) + 1.8 g/L Dipropylenglycol (D)): 100% | Penetration after 24 h (entry 7: as entry 4 + 2.1 g/L Dipropylenglycolmonomethylether (A) + 1.4 g/L Propylenglycolmonomethylether (B)): 100% | Penetration after 24 h (entry 8: as entry 4 + 2.5 g/L Dipropylenglycolmonomethylether (A) + 1.2 g/L Propylenglycol (C)): 95%
